Values joined by “and” are separate entries in the source; they are usually repeats but may differ in a detail not shown here. Equal entries are not always repeated. One block for each molecule: values may come before it.
Key:
[1] = target: T1, DES1 (Homo sapiens, UniProt O15121); test: DES1 activity in ARPE-19 cells (dihydroceramide/ceramide ratio, LC/MS); format: cell-based; design: DHCER (C18) / CER (C18) / DHCER (C16) / CER (C16): unit not given here; settings: 10 μM, 24 h; for increase in dihydroceramide/ceramide ratio, C18 ceramide: compared to DMSO control; for MEAN RATIO (DH / C) C16 / MEAN RATIO C18 DHCER/CER: mean of 3; for MEAN RATIO (DH / C) C16: DMSO 0.08; for MEAN RATIO C18 DHCER/CER: DMSO 0.289
T1 construct: endogenous in cells; host or cells: ARPE-19
T1 sequence (O15121 1-323): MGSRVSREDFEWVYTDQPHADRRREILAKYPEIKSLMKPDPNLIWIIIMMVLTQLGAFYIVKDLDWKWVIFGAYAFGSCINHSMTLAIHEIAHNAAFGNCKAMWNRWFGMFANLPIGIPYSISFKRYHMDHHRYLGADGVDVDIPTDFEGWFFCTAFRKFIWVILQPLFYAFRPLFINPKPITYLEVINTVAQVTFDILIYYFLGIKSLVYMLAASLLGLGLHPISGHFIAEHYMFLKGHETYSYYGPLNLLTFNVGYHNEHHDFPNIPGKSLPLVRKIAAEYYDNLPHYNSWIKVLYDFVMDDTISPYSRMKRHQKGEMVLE
Protocol: ARPE-19 cells were seeded onto tissue culture plates at a density of 2x10^5 cells/ml in complete medium and allowed to grow overnight. Cells were then treated with retinoids (10 μM) or vehicle (control) for 24 hours in a 37°C, 5% CO2 incubator at which time cells were harvested and total lipids were extracted into methyl-tert-butyl ether (MTBE) using the method of Matyash et al.. Extracted lipids normalized to total protein as described were subjected to liquid chromatography mass spectrometry (LC/MS) to determine the sphingolipid content in treated ARPE-19 cells. LC/MS analysis was performed using a Waters 2695 LC system coupled to an AB Sciex API2000 triple quadrupole mass spectrometer. […] The mass spectral analysis of the sphingolipid species was performed using electrospray ionization in the positive ion mode with multiple reaction monitoring (MRM). The following compound-specific transitions for precursor and characteristic product ions were used: 538 → 264 for C16 Ceramide (Cer); 540 → 266 for C16 dihydroceramide (DHCer); 566 →264 for C18 Cer; and 568 → 266 for C18 DHCer. Data was acquired and analyzed using Analyst software v 1.5 (AB Sciex).
The ratio of substrate to product for C16 and C18 ceramides (dihydroceramide/ceramide) in the presence of DMSO or inhibitors was determined by LC/MS.
Lipids were extracted from one 100 mm Petri dish for each biological replicate and subjected to mass spectrometry analysis. Data plotted as means±standard deviation; n = 3.

[2] = target: T2, SCD1 (Homo sapiens, UniProt O00767); test: SCD1 activity in ARPE-19 cells (conversion of methyl-D3 palmitic acid to methyl-D3 palmitoleic acid, LC/MS); format: cell-based; settings: for Palmitate (AUC) / Palmitoleic Acid (AUC) / Ratio (16:0 / 16:1): 10 μM 16 h, then 50 μM D3-palmitic acid 5 h, single samples; for Mean Ratio (16:0 / 16:1) / effect on SCD1 activity: 10 μM; for Mean Ratio (16:0 / 16:1): mean of 3 samples, DMSO 8.884; for effect on SCD1 activity: ARPE-19 cells
T2 construct: endogenous in cells; host or cells: ARPE-19
T2 sequence (O00767 1-359): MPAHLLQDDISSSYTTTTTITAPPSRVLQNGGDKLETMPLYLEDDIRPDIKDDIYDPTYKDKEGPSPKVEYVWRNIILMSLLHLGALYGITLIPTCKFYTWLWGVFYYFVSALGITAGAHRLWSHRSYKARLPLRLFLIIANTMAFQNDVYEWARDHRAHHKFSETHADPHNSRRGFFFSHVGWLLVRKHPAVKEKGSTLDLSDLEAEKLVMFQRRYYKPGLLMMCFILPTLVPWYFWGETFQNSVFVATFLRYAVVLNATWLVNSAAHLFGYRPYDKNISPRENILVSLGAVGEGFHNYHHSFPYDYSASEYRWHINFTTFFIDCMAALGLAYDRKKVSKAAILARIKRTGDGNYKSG
Protocol: Compounds were dissolved in dimethyl sulfoxide (DMSO) and then added to the cell culture medium. Cells designated as control received an equal amount of dimethyl sulfoxide. After 16 h, cells were incubated with 50 μM palmitic acid triply deuterated (D3) on the methyl group (Cambridge Isotope Laboratories, Tewksbury, MA) for an additional 5 h before harvesting.
Cells were detached from culture plates using 0.05% Trypsin-EDTA, washed with PBS, and pelleted. Cell pellets were resuspended in 450 μl Cell Lysis Buffer (Cell Signaling Technology, Danvers, MA) then sonicated on ice until uniformly dispersed. An aliquot (50 μl) of the dispersed cell suspension was used for protein quantitation, and the remaining 400 μl was used for lipid extraction as follows. Samples were spiked with a small volume of pentadecanoic acid (in CHCl3) as internal standard, and were then subjected to saponification (by addition of an equal volume of 0.6 M methanolic KOH and incubating at 72°C for 15 minutes). Following saponification, samples were acidified by addition of 100 μl formic acid. The acidified mixture was extracted twice with 1 ml chloroform to recover free fatty acids. The chloroform extracts were pooled, solvent was evaporated under argon at 37°C, and the residue was resolubilized in 100 μl chloroform/methanol (1:4) for analysis by liquid chromatography mass spectrometry (LC/MS) using a modification of the procedures of Dillon et al.. The LC-MS system consisted of a 1200 Series Capillary LC (Agilent, Santa Clara, CA) coupled to a Micromass Q-Tof micro mass spectrometer (Waters Corp., Milford, MA) equipped with an electrospray ionization source. Separation of fatty acids was achieved by isocratic elution on a PLRP-S polymeric reversed-phase column (100 Å, 3 μm, 2.1 x 150 mm; Agilent) heated to 65°C. A mobile phase consisting of 25% acetonitrile:chloroform (1:1), 40% methanol, 25% water, 10% 10 mM ammonium acetate was run at a flow rate of 0.1 ml/min. The mass spectral analysis of the fatty acids was performed in the negative ion mode using the following instrument settings: capillary voltage, 1600; sample cone voltage, 40; cone gas flow, 40 L/hr; desolvation gas flow, 400 L/hr; source temperature, 80°C; desolvation temperature, 100°C. Data was then analyzed using MassLynx software v 4.1 (Waters) by extracting the ion chromatograms of the labeled palmitic and palmitoleic acid peaks and measuring peak area.
Cell lysates were analyzed by Western blotting using mouse monoclonal antibody against SCD1 (upper panel) in comparison with immunoreactivity to α-tubulin which was employed as a loading control (lower panel) and densitometry for each lane was performed and analyzed by ImageJ to provide the SCD1/α-tubulin ratio for each lane. […] Free fatty acids present in lipid extracts were analyzed by LC/MS and SCD1 activity, measured by the conversion of methyl-D3 palmitic acid to methyl-D3 palmitoleic acid, was determined. […] Lipids were extracted from two 100 mm Petri dishes and combined for mass spectrometry analysis. Data plotted as means ± standard deviation; n = 3. […] They are given here as printed results in cells, but it is uncertain whether they fall under the exclusion for gels and blots. / Panel A: the Control lane (1.00) is left out because it is not a substance.

SMILES: CC1=C(/C=C/C(C)=C/C=C/C(C)=C/C(=O)Nc2ccc(O)cc2)C(C)(C)CCC1=O [3-keto-HPR, 4-oxo-N-(4-hydroxyphenyl)retinamide]
effect on DES1 activity / substrate accumulation [1]: inhibit DES1 activity | increase in dihydroceramide/ceramide ratio, C18 ceramide [1]: ~ 3 fold | MEAN RATIO (DH / C) C16 [1]: 0.66 | MEAN RATIO C18 DHCER/CER ([1]; listed as 3-KETO-HPR): 0.7062 | MEAN RATIO C18 DHCER/CER ([1]; listed as KETO): 0.706 | CER (C16) ([1]; single samples): 25.15 and 24.70 and 25.05 | CER (C18) ([1]; single samples): 14.35 and 14.50 and 14.55 | Ceramide Content, C16 CER ([1]; single samples): 25.15 ng and 24.70 ng and 25.05 ng | Ceramide Content, C16 DHCER ([1]; single samples): 19.55 ng and 15.70 ng and 14.55 ng | Ceramide Content, C18 CER ([1]; single samples): 14.35 ng and 14.50 ng and 14.55 ng | Ceramide Content, C18 DHCER ([1]; single samples): 9.70 ng and 11.25 ng | DHCER (C16) ([1]; single samples): 19.55 and 15.70 and 14.55 | DHCER (C18) ([1]; single samples): 9.70 and 11.25 | Mass Injected, C16 CER ([1]; single samples): 5.03 ng and 4.94 ng and 5.01 ng | Mass Injected, C16 DHCER ([1]; single samples): 3.910 ng and 3.140 ng and 2.910 ng | Mass Injected, C18 CER ([1]; single samples): 2.87 ng and 2.90 ng and 2.91 ng | Mass Injected, C18 DHCER ([1]; single samples): 1.94 ng and 2.25 ng | RATIO (DH / C) C16 ([1]; single samples): 0.78 and 0.64 and 0.58 | RATIO C18 DHCER/CER ([1]; single samples): 0.676 and 0.776 and 0.667 | Palmitate (AUC) [2]: 1476.16 and 1271.38 and 1913.30 | Palmitoleic Acid (AUC) [2]: 17.56 and 10.07 and 19.08 | Ratio (16:0 / 16:1) [2]: 84.064 and 126.254 and 100.278 | Mean Ratio (16:0 / 16:1) [2]: 103.532 | effect on SCD1 activity [2]: effective inhibitors of SCD1 activity

SMILES: COc1ccc(NC(=O)/C=C(C)/C=C/C=C(C)/C=C/C2=C(C)CCCC2(C)C)cc1 [MPR, N-[4-methoxyphenyl]retinamide]
effect on DES1 activity / substrate accumulation [1]: do not lead to overaccumulation of substrate | MEAN RATIO (DH / C) C16 [1]: 0.08 | MEAN RATIO C18 DHCER/CER [1]: 0.338 and 0.3375 | CER (C16) ([1]; single samples): 20.40 and 20.30 and 18.55 | CER (C18) ([1]; single samples): 14.65 and 15.00 and 13.65 | Ceramide Content, C16 CER ([1]; single samples): 20.40 ng and 20.30 ng and 18.55 ng | Ceramide Content, C18 CER ([1]; single samples): 14.65 ng and 15.00 ng and 13.65 ng | Ceramide Content, C18 DHCER ([1]; single samples): 5.30 ng and 4.97 ng and 4.35 ng | DHCER (C18) ([1]; single samples): 5.30 and 4.97 | Mass Injected, C16 CER ([1]; single samples): 4.08 ng and 4.06 ng and 3.71 ng | Mass Injected, C18 CER ([1]; single samples): 2.93 ng and 3.00 ng and 2.73 ng | Mass Injected, C18 DHCER ([1]; single samples): 1.06 ng and 0.99 ng and 0.87 ng | RATIO C18 DHCER/CER ([1]; single samples): 0.362 and 0.331 and 0.319 | Palmitate (AUC) [2]: 2368.01 and 2526.72 and 1327.38 | Ratio (16:0 / 16:1) [2]: 8.882 and 7.657 and 8.556 | Mean Ratio (16:0 / 16:1) [2]: 8.365 | effect on SCD1 activity [2]: no inhibitory effect on SCD1 activity at all

SMILES: CC1=C(/C=C/C(C)=C/C=C/C(C)=C/C(=O)Nc2ccc(O)cc2)C(C)(C)CCC1 [fenretinide, N-[4-hydroxyphenyl]retinamide]
effect on DES1 activity / substrate accumulation [1]: inhibit DES1 activity | CER (C16) ([1]; single samples, listed as 4HPR): 17.20 and 18.50 and 17.10 | CER (C18) ([1]; single samples, listed as 4HPR): 12.80 and 11.80 and 11.95 | Ceramide Content, C16 CER ([1]; single samples, listed as 4HPR): 17.20 ng and 18.50 ng and 17.10 ng | Ceramide Content, C16 DHCER ([1]; single samples, listed as 4HPR): 6.15 ng and 4.01 ng and 5.75 ng | Ceramide Content, C18 CER ([1]; single samples, listed as 4HPR): 12.80 ng and 11.80 ng and 11.95 ng | Ceramide Content, C18 DHCER ([1]; single samples, listed as 4HPR): 9.30 ng and 7.50 ng and 7.25 ng | DHCER (C16) ([1]; single samples, listed as 4HPR): 5.75 and 6.15 and 4.01 | DHCER (C18) ([1]; single samples, listed as 4HPR): 9.30 and 7.50 and 7.25 | Mass Injected, C16 CER ([1]; single samples, listed as 4HPR): 3.44 ng and 3.70 ng and 3.42 ng | Mass Injected, C16 DHCER ([1]; single samples, listed as 4HPR): 1.230 ng and 0.801 ng and 1.150 ng | Mass Injected, C18 CER ([1]; single samples, listed as 4HPR): 2.56 ng and 2.36 ng and 2.39 ng | Mass Injected, C18 DHCER ([1]; single samples, listed as 4HPR): 1.86 ng and 1.50 ng and 1.45 ng | Palmitate (AUC) ([2]; listed as 4HPR): 1258.94 and 1398.36 and 1783.91 | Palmitoleic Acid (AUC) ([2]; listed as 4HPR): 12.20 and 15.08 and 14.79 | effect on SCD1 activity [2]: effective inhibitors of SCD1 activity

increase in dihydroceramide/ceramide ratio, C18 ceramide [1]: ~ 2 fold | MEAN RATIO (DH / C) C16 [1]: 0.07 | MEAN RATIO C18 DHCER/CER [1]: 0.153 and 0.1528 | CER (C16) ([1]; single samples): 18.30 and 24.15 and 18.55 | CER (C18) ([1]; single samples): 11.60 and 16.65 and 11.05 | Ceramide Content, C16 CER ([1]; single samples): 18.30 ng and 24.15 ng and 18.55 ng | Ceramide Content, C18 CER ([1]; single samples): 11.60 ng and 16.65 ng and 11.05 ng | Mass Injected, C16 CER ([1]; single samples): 3.66 ng and 4.83 ng and 3.71 ng | Mass Injected, C18 CER ([1]; single samples): 2.32 ng and 3.33 ng and 2.21 ng | RATIO C18 DHCER/CER ([1]; single samples): 0.136 and 0.202 and 0.120 | Palmitate (AUC) [2]: 625.27 and 963.80 and 854.94 | Palmitoleic Acid (AUC) [2]: 74.04 and 107.80 and 111.92 | Ratio (16:0 / 16:1) [2]: 8.445 and 8.941 and 7.639 | Mean Ratio (16:0 / 16:1) [2]: 8.342
SMILES: O=C(O)c1ccccc1NC(=O)N1CCC(c2ccccc2C(F)(F)F)CC1 [A1120]
effect on DES1 activity / substrate accumulation [1]: do not lead to overaccumulation of substrate | effect on SCD1 activity [2]: no inhibitory effect on SCD1 activity at all
